One assay deals with S. aureus. As to the kind of experiment: Broth microdilution MIC (Example 5). It is filed as cell-based, Staphylococcus aureus. Particulars: Staphylococcus aureus, ATCC 29213 / MSSA, S. aureus MMX 101 (ATCC 29213); QC; MSSA; read-out: MIC. As for the experimental part:
Test and Comparator Agents: The test agents were stored at room temperature until assayed. […] The stock solutions were allowed to stand for at least 1 hr prior to use to auto-sterilize.
TestMedia: Test media were prepared and stored in accordance with guidelines from CLSI (4, 6, 7).
Broth Microdilution MC Testing (Aerobic Bacteria and Yeast): The broth microdilution assay method employed for the susceptibility testing of aerobic bacteria (excluding N. gonorrhoeae which was evaluated by agar dilution) and yeast essentially followed the procedures described by CLSI (3, 4, 7, 8) and employed automated liquid handlers to conduct serial dilutions and liquid transfers. […] These would become the ‘mother plates’ from which ‘daughter’ or test plates would be prepared. The drugs (300 μL at 40× the desired top concentration in the test plates) were dispensed into the appropriate well in Column 1 of the mother plates. The Biomek 2000 was used to make serial two-fold dilutions through Column 11 in the “mother plate”. The wells of Column 12 contained no drug and ultimately served as the organism growth control wells.
The daughter plates were prepared using the Biomek FX which transferred 5 μL of drug solution from each well of a mother plate to the corresponding well of the correct daughter plate in a single step.
A standardized inoculum of each organism was prepared per CLSI methods (3, 7). Isolated colonies of each test isolate were picked from the primary plate and a suspension was prepared to equal a 0.5 McFarland turbidity standard. Standardized suspensions were then diluted […] (1:100 for yeast, 1:20 for bacteria). After dilution, the inoculum suspensions were then transferred to compartments of sterile reservoirs divided by length (Beckman Coulter), and the Biomek 2000 was used to inoculate all plates. Daughter plates were placed on the Biomek 2000 in reverse orientation so that plates were inoculated from low to high drug concentration.
The Biomek 2000 delivered 10 μL of standardized inoculum into each well of the appropriate daughter plate for an additional 1:20 dilution.
Plates were stacked 4 high, covered with a lid on the top plate, placed into plastic bags, and incubated at 35° C. for approximately 24-48 hr for all yeast isolates and 16-24 hr for aerobic bacteria. Plates were viewed from the bottom using a plate viewer. […] MIC endpoints for the test agents and control compounds were read per CLSI criteria (3, 7).
For orientation: Dilution methods test growth across graded concentrations, often in twofold steps.

The subject of assay [1] is Corynebacterium amycolatum. As to the kind of experiment: MIC of baseline clinical isolates (Example 8). Particulars: Corynebacterium amycolatum baseline isolates (N′ = 1), central laboratory, mITT. It is filed as cell-based. The protocol: (§1) Microbiology was assessed on Day 1 and at the time of any subsequent surgical procedure at the index site. Samples were collected from the infected bone site or involved tissue adjacent to any implant(s), swabs of the deep infection site, and the superficial tissue/wound closure/sinus tract site. Isolation and identification of aerobic and anerobic bacteria was conducted at a central microbiology laboratory (IHMA, Schaumburg, IL) and susceptibility of the isolates to MBN-101 (BisEDT) and comparator agents was performed per Clinical and Laboratory Standards Institute (CLSI). Parallel sets of samples were analyzed by the local clinical site laboratory to guide patient antibiotic treatment.

In another assay the test system is Corynebacterium jeikeium. Briefly: MIC of baseline clinical isolates (Example 8). Particulars: Corynebacterium jeikeium baseline isolates (N′ = 2), central laboratory, mITT. It is filed as cell-based. The protocol: as §1
Assay [2] relates to Corynebacterium resistens. As to the kind of experiment: MIC of baseline clinical isolates (Example 8). In kind it is cell-based. Particulars: Corynebacterium resistens baseline isolates (N′ = 1), central laboratory, mITT. The protocol: as §1
Another assay relates to Dermabacter hominis. Briefly: MIC of baseline clinical isolates (Example 8). It is filed as cell-based. Particulars: Dermabacter hominis baseline isolates (N′ = 1), central laboratory, mITT. The protocol: as §1
The subject of another assay is Streptococcus oralis. As to the kind of experiment: MIC of baseline clinical isolates (Example 8). It is filed as cell-based. Particulars: Streptococcus oralis baseline isolates (N′ = 1), central laboratory, mITT. The protocol:
as §1

For assay [3], the system named is non-speciated Corynebacterium. As to the kind of experiment: MIC of baseline clinical isolates (Example 8). In kind it is cell-based. Particulars: Corynebacterium non-speciated baseline isolates (N′ = 2), central laboratory, mITT. The protocol: as §1
The test system of assay [4] is vancomycin-intermediate Staphylococcus aureus. As to the kind of experiment: Broth microdilution MIC (Example 6). In kind it is cell-based. The protocol: (§2) Test Compounds: The test agents BisEDT (MB-1-B3; Lot No. ED268-1-11-01), MB-2B, and MB-6 were stored at room temperature, in the dark, until assayed. The solvent and diluent for the test agents was DMSO (Sigma; St. Louis, MO; Lot No. SHBB9319V) and the prepared stock concentration was 6,464 μg/mL (101× the final test concentration).
(§3) Test compounds were evaluated at a concentration range of 0.06-64 μg/mL. For Gram-negative test isolates, amikacin and ceftazidime (alone and with clavulanate at a fixed concentration of 4 μg/mL) were evaluated over a concentration range of 0.06-64 μg/mL; meropenem and levofloxacin were evaluated over a concentration range of 0.008-8 μg/mL. For the testing of S. aureus, clindamycin, daptomycin, levofloxacin and vancomycin were evaluated at a concentration range of 0.008-8 μg/mL; linezolid was tested from 0.03-32 μg/mL.
(§4) Media: Cation-adjusted Mueller Hinton broth (CAMHB; BD; Lot No. 8190586) was used as the medium for testing (2, 3). For testing daptomycin, calcium was supplemented with […] Ca^2+, resulting in a final concentration of […] Ca^2+ (2, 3).
(§5) MIC Assay Procedure: MIC values were determined using a broth microdilution procedure described by CLSI (2, 3). Automated liquid handlers (Multidrop 384, Labsystems, Helsinki, Finland; Biomek 2000 and Biomek F X, Beckman Coulter, Fullerton CA) were used to conduct serial dilutions and liquid transfers.
(§6) To prepare the drug mother plates, which would provide the serial drug dilutions for the replicate daughter plates, the wells of columns 2 through 12 of standard 96-well microdilution plates (Costar 3795) were filled with 150 μl of the appropriate diluent for each row of drug. The test articles and comparator compounds (300 μl at 101× the highest concentration to be tested) were dispensed into the appropriate wells in column 1. The Biomek 2000 was then used to make 2-fold serial dilutions in the mother plates from column 1 through column 11. The wells of column 12 contained no drug and served as the organism growth control wells for the assay.
(§7) The daughter plates were loaded with 190 μL per well of RPMI using the Multidrop 384. The test panels were prepared on the Biomek FX instrument which transferred 2 μL of drug solution from each well of a mother plate to the corresponding well of each daughter plate in a single step.
(§8) A standardized inoculum of each test organism was prepared per CLSI methods to equal a 0.5 McFarland standard, followed by a dilution of 1:20. The plates were then inoculated with 10 μL of the diluted inoculum using the Biomek 2000 from low to high drug concentration resulting in a final concentration of approximately 5×10^5 CFU/mL.
(§9) Plates were stacked 3-4 high, covered with a lid on the top plate, placed into plastic bags, and incubated at 35° C. for 16 to 20 hr (vancomycin was read for S. aureus after 24 hr incubation time). The MIC was recorded as the lowest concentration of drug that inhibited visible growth of the organism.

In assay [5] the test system is relevant ATCC QC organisms. Briefly: Broth microdilution MIC, QC (Example 6). In kind it is cell-based. Particulars: S. aureus ATCC 29213. As for the experimental part: as §2, §3
Organisms: The test organisms as shown in Tables 11-15 consisted of clinical isolates from the Micromyx (MMX) repository and reference strains from the American Type Culture Collection (ATCC; Manassas, VA), National Collection of Type Cultures (NCTC; Public Health England, Salisbury, UK), the Network on Antimicrobial Resistance in Staphylococcus aureus (NARSA; BEI Resources, Manassas, VA), and the Centers for Disease Control and Prevention (CDC; Atlanta, GA). The test organisms were maintained frozen at −80° C. Prior to testing, the isolates were cultured on Tryptic Soy Agar with 5% sheep blood (BAP; Becton Dickson [BD]/BBL; Sparks, MD; Lot Nos. 9080650 and 9108563) at 35° C. Relevant ATCC quality control (QC) organisms (Table 16) were included during testing in accordance with CLSI guidelines (3). Further details on the genetic characterization of the isolates where available can be found in Table 17.
as §4, §5, §6, §7, §8, §9

Converted amounts (≈) assume the structure as drawn.

With `Cc1onc(-c2ccccc2)c1C(=O)N[C@@H]1C(=O)N2[C@@H]1SC(C)(C)[C@@H]2C(=O)O` [Oxacillin], the MIC – broadly, the least concentration at which growth counts as inhibited – in the assay with S. aureus stood at 0.2 µg/mL (≈ 0.498 µM).

For the molecule `CO/N=C(\C(=O)N[C@@H]1C(=O)N2C(C(=O)O)=C(CSc3nc(=O)c(O)nn3C)CS[C@H]12)c1csc(N)n1` [CRO], the “Mean MIC” value was 1.00 mg/L in [1]; 4.00 mg/L in the assay on Corynebacterium jeikeium; 4.00 mg/L in assay [2]; 0.50 mg/L with Dermabacter hominis; 0.06 mg/L in the assay on Streptococcus oralis; 0.75 mg/L in assay [3]. The “n (% resistant)” value in [1] is recorded as 0 (0.0) n (%); in the assay with Corynebacterium jeikeium it was 2 (100.0) n (%); in assay [2], 1 (100.0) n (%); in the assay on Dermabacter hominis, 0 (0.0) n (%); with Streptococcus oralis, 0 (0.0) n (%); in [3], 0 (0.0) n (%).

With `CC[C@H]1OC(=O)[C@H](C)[C@@H](O[C@H]2C[C@@](C)(OC)[C@@H](O)[C@H](C)O2)[C@H](C)[C@@H](O[C@@H]2O[C@H](C)C[C@H](N(C)C)[C@H]2O)[C@](C)(O)C[C@@H](C)C(=O)[C@H](C)[C@@H](O)[C@]1(C)O` [ERY], the “Mean MIC” value in assay [1] worked out at 4.00 mg/L; with Corynebacterium jeikeium, 2.25 mg/L; in assay [2], 0.02 mg/L; in the assay with Dermabacter hominis, 2.00 mg/L; in the assay with Streptococcus oralis it was 1.00 mg/L; in assay [3] it was 2.02 mg/L. Also, the “n (% resistant)” value is recorded as 1 (100.0) n (%) in assay [1]; 1 (50.0) n (%) with Corynebacterium jeikeium; 0 (0.0) n (%) in [2]; 1 (100.0) n (%) in the assay with Dermabacter hominis; 1 (100.0) n (%) in the assay with Streptococcus oralis; 1 (50.0) n (%) in assay [3].

On to `CCCCCCCCCC(=O)N[C@@H](Cc1c[nH]c2ccccc12)C(=O)N[C@H](CC(N)=O)C(=O)N[C@@H](CC(=O)O)C(=O)N[C@@H]1C(=O)NCC(=O)N[C@@H](CCCN)C(=O)N[C@@H](CC(=O)O)C(=O)N[C@H](C)C(=O)N[C@@H](CC(=O)O)C(=O)NCC(=O)N[C@H](CO)C(=O)N[C@@H]([C@H](C)CC(=O)O)C(=O)N[C@@H](CC(=O)c2ccccc2N)C(=O)O[C@@H]1C` [DAP], for which the MIC is 1 µg/mL in assay [4] (S. aureus isolate NRS 1 (hVISA)); 0.25 µg/mL in assay [4] (S. aureus isolate NRS 2); 1 µg/mL in assay [4] (S. aureus isolate NRS 3); 0.5 µg/mL in [4] (S. aureus isolate NRS 4); 2 µg/mL in assay [4] (S. aureus isolate NRS 13); 0.5 µg/mL in assay [4] (S. aureus isolate NRS 18). Moreover, the MIC in [4] (S. aureus isolate NRS 22) stood at 2 µg/mL; in [4] (S. aureus isolate NRS 24 (hVISA)) it was 0.5 µg/mL; in assay [4] (S. aureus isolate NRS 27), 0.25 µg/mL; in assay [5], 0.5 µg/mL.

Consider `CC1(C)S[C@@H]2[C@H](NC(=O)Cc3ccccc3)C(=O)N2[C@H]1C(=O)O` [PEN], for which the “Mean MIC” value came out at 1.00 mg/L in [1]; 4.00 mg/L with Corynebacterium jeikeium; 4.00 mg/L in assay [2]; 0.50 mg/L in the assay on Dermabacter hominis; 0.06 mg/L with Streptococcus oralis; 2.06 mg/L in assay [3]. For the same molecule, the “n (% resistant)” value is given as 0 (0.0) n (%) in assay [1]; 2 (100.0) n (%) in the assay on Corynebacterium jeikeium; 1 (100.0) n (%) in assay [2]; 0 (0.0) n (%) in the assay on Dermabacter hominis; 0 (0.0) n (%) in the assay on Streptococcus oralis.
